The values that follow are results of earlier work, collected in patent US20030035827A1, “Pharmaceutical compositions containing substrates of enabling enzymes to preferentially deliver drugs away from PBVC or GIC systems” (priority 2001, published 2003).

As usually defined, the Km is the substrate concentration at which the rate is half of its maximum.

The target in this data set is pseudocholinesterase, plasma cholinesterase or butyrocholinesterase (PCE) (Homo sapiens, UniProt P06276).
Where [1] appears, read: substrate of PCE, previous experiments.
[2] abbreviates: substrate of PCE, previous experiments, read-out: Km.

Read-outs that look alike come from different tables or passages of the source.

Sequence of pseudocholinesterase, plasma cholinesterase or butyrocholinesterase (PCE) (P06276 29-602): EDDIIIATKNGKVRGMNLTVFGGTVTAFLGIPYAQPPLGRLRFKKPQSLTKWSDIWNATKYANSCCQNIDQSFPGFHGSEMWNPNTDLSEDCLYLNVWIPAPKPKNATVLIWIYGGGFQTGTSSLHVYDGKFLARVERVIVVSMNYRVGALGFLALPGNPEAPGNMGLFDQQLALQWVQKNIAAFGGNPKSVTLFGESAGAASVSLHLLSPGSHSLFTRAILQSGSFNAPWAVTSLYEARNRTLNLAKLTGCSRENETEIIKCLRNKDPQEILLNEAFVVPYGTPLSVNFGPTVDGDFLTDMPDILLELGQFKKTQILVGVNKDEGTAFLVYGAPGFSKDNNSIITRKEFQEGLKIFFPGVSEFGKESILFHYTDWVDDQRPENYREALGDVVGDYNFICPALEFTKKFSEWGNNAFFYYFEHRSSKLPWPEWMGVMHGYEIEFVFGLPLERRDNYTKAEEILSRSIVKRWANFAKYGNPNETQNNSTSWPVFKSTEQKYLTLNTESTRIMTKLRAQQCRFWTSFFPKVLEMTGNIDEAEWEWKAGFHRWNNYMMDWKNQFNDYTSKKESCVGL

For the compound `CC(=O)OCC[N+](C)(C)C` [Acetylcholine], the Km under setting [1] was 9,000 uM.
Turning to `CC(=O)Oc1ccccc1C(=O)O` [Aspirin], under setting [1], the Kcat is recorded as 7,200/min and the Km was 1,600 uM.
With `C[N+](C)(C)CCOC(=O)c1ccccc1` [Benzoylcholine], the Kcat under setting [1] is 15,000/min. The Km under setting [2] was 22 µM.
On to `CCCC(=O)OCC[N+](C)(C)C` [Butyrylcholine], for which, under setting [1], the Kcat was 80,000/min. Further, the Km under setting [2] is 1700 µM.
Turning to `CCCC(=O)SCC[N+](C)(C)C` [Butyrylthiocholine], the Kcat under setting [1] is given as 30,000/min.
Regarding `CCCCCCC(=O)OCC[N+](C)(C)C` [Hepanoylcholine], the Kcat is 35,000/min. Moreover, for the setting “read-out: Km”, the Km was 1110 µM.
With `CC(=O)Oc1ccc2c3c1O[C@H]1[C@@H](OC(C)=O)C=C[C@H]4[C@@H](C2)N(C)CC[C@@]341` [Heroin], the Michaelis-Menten constant (Km) is 450 µM. Further, under setting [1], the Kcat was 500 min⁻¹.
Consider `CCCCCC(=O)OCC[N+](C)(C)C` [Hexanoylcholine], for which the Km (read-out: Km) was 820 µM. The Kcat under setting [1] is given as 36,000/min.
`CCCC(=O)Oc1ccccc1[N+](=O)[O-]` [O-Nitrophenylbutyrate]: the Kcat is 48,000/min. For the same compound, the Km (read-out: Km) was 400 µM.
In the case of `CCCCC(=O)OCC[N+](C)(C)C` [Pentanoylcholine], where the note is “read-out: Km”, the Km was 1500 µM. Under setting [1], the Kcat is 63,000/min.
For `CCN(CC)CCOC(=O)c1ccc(N)cc1` [Procaine], the Km is 100 µM. Also, the Kcat under setting [1] was 255 min⁻¹.
Consider `CCC(=O)OCC[N+](C)(C)C` [Propionylcholine], for which the Kcat under setting [1] is on record as 55,000/min. Further, under setting [2], the Km is 3100 µM.
`CCCCNc1ccc(C(=O)OCCN(C)C)cc1` [Tetracaine]: under setting [1], the Kcat was 74 min⁻¹ and the Km is 8 µM.
For Succinyldithiocholine, the Kcat under setting [1] is 600 min⁻¹. Further, the Km under setting [2] was 1080 µM.
